Results from ChEMBL document CHEMBL4715689, “Novel PTP1B inhibitors identified by DNA display of fragment pairs” (Bioorg Med Chem Lett, 2016).
The source made the active and inactive calls. No cut-off for these calls is given here.

How the values were obtained:
[1] = biological target: T1, Tyrosine-protein phosphatase non-receptor type 1 (Homo sapiens, UniProt P18031)
T1 sequence (P18031 whole entry): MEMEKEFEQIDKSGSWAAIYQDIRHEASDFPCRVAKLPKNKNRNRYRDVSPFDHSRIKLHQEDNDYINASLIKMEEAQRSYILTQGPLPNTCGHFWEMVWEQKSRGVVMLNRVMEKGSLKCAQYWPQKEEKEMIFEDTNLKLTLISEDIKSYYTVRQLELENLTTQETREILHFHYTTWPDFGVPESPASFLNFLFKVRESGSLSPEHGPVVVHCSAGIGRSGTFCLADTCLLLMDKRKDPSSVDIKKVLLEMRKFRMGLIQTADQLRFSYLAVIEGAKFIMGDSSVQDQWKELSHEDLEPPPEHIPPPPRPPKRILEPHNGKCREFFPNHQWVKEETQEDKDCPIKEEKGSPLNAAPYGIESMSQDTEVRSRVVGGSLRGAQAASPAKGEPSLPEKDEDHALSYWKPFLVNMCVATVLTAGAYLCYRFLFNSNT
Description: Inhibition of N-terminal GST-tagged recombinant human PTP1B (1 to 321 residues) expressed in Escherichia coli using DifMup as substrate preincubated for 30 mins followed by substrate addition and measured immediately

[2] = biological target: T2, Tyrosine-protein phosphatase non-receptor type 2 (Homo sapiens, UniProt P17706); assay: Inhibition of recombinant human TCPTP (1 to 317 residues) expressed in Escherichia coli using DifMup as substrate preincubated for 30 mins followed by substrate addition and measured immediately
T2 sequence (P17706 whole entry): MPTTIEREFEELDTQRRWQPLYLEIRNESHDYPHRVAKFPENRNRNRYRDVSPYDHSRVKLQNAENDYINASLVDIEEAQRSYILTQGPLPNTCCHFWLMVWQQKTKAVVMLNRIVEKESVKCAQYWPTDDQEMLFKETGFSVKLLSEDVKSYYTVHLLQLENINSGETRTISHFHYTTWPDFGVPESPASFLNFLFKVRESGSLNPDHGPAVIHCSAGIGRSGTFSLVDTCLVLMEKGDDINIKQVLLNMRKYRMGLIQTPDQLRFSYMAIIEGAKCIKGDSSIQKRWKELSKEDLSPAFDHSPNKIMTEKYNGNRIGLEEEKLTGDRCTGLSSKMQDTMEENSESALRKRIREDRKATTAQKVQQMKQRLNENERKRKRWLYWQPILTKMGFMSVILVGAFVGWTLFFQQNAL

[3] = biological target: T1, Tyrosine-protein phosphatase non-receptor type 1; remark: listed apart in the source
Description: Binding affinity to N-terminal GST-tagged recombinant human PTP1B (1 to 321 residues) expressed in Escherichia coli assessed as dissociation constant and measured for 120 sec by biolayer interferometry

BT-474 = assay: Growth inhibition of human BT474 cells assessed as reduction in cell viability after 48 hrs by MTT assay; assay type: functional

Row | Compound | Ki [1] | Ki [2] | Kd [3] | GI50 (BT-474) | Activity (BT-474)
1 | CCCCC(NC1=NS(=O)(=O)c2ccccc21)C(=O)NCC(NC(=O)c1ccccc1NC(=O)c1n[nH]c2ccc([N+](=O)[O-])cc12)C(=O)NC(CCCCNC(=O)CCCC[C@@H]1SCC2NC(=O)NC21)C(N)=O (some centres undefined) | 1200 nM | > 100000 nM | 270 nM | – | inactive
2 | CCCCC(NC1=NS(=O)(=O)c2ccccc21)C(=O)NC[C@@H](NC(=O)C1(NC(=O)[C@H](CC(C)(C)C)n2cc(CC3CCCCC3)nn2)CC1)C(=O)NC(CCCCNC(=O)CCCC[C@@H]1SCC2NC(=O)NC21)C(N)=O (some centres undefined) | 2200 nM | 7600 nM | 210 nM | – | –
3 | CCCCC(NC1=NS(=O)(=O)c2ccccc21)C(=O)NCC(NC(=O)c1ccccc1NC(=O)c1n[nH]c2ccc([N+](=O)[O-])cc12)C(N)=O (centres undefined) | 1200 nM | > 100000 nM | 270 nM | – | inactive
4 | CCCCC(NC1=NS(=O)(=O)c2ccccc21)C(=O)NC[C@@H](NC(=O)C1(NC(=O)[C@H](CC(C)(C)C)n2cc(CC3CCCCC3)nn2)CC1)C(N)=O (some centres undefined) | 2200 nM | 7600 nM | 210 nM | – | –
5 | CCC(C)C(NC1=NS(=O)(=O)c2ccccc21)C(=O)NC[C@@H](NC(=O)CC1(NC(=O)[C@H](CC(C)(C)C)n2cc(CC3CCCCC3)nn2)CCCCC1)C(N)=O (some centres undefined) | 1700 nM | > 100000 nM | 290 nM | 900 nM | –
6 | CCCCC(NC1=NS(=O)(=O)c2ccccc21)C(=O)NCC(NC(=O)COCCOCCNC(=O)C(C1CC1)n1cc(-c2cccc(OC)c2)nn1)C(=O)NC(CCCCNC(=O)CCCC[C@@H]1SCC2NC(=O)NC21)C(N)=O (some centres undefined) | 2900 nM | 7010 nM | 220 nM | – | –
7 | CC(C)C(NC1=NS(=O)(=O)c2ccccc21)C(=O)NCC(NC(=O)c1n[nH]c2ccc([N+](=O)[O-])cc12)C(N)=O (centres undefined) | – | > 20000 nM | – | – | inactive
8 | CCCCC(NC1=NS(=O)(=O)c2ccccc21)C(=O)NCC(NC(=O)COCCOCCNC(=O)C(C1CC1)n1cc(-c2cccc(OC)c2)nn1)C(N)=O (centres undefined) | 2900 nM | 7010 nM | 220 nM | – | –
9 | CCCCC(NC1=NS(=O)(=O)c2ccccc21)C(=O)NC[C@@H](NC(=O)C1CCCC(NC(=O)[C@H](CC(C)(C)C)n2cc(CC3CCCCC3)nn2)C1)C(N)=O (some centres undefined) | 3100 nM | 12200 nM | 90 nM | – | –
10 | CCC(C)C(NC1=NS(=O)(=O)c2ccccc21)C(=O)NC[C@@H](NC(=O)CC1(NC(=O)[C@H](CC(C)(C)C)n2cc(CC3CCCCC3)nn2)CCCCC1)C(=O)NC(CCCCNC(=O)CCCC[C@@H]1SCC2NC(=O)NC21)C(N)=O (some centres undefined) | 1700 nM | > 100000 nM | 290 nM | 900 nM | –
11 | CC(C)C(NC1=NS(=O)(=O)c2ccccc21)C(=O)NCC(NC(=O)c1n[nH]c2ccc([N+](=O)[O-])cc12)C(=O)NC(CCCCNC(=O)CCCC[C@@H]1SCC2NC(=O)NC21)C(N)=O (some centres undefined) | 250 nM | > 20000 nM | 50 nM | – | inactive
12 | CCCCC(NC1=NS(=O)(=O)c2ccccc21)C(=O)NC[C@@H](NC(=O)C1CCCC(NC(=O)[C@H](CC(C)(C)C)n2cc(CC3CCCCC3)nn2)C1)C(=O)NC(CCCCNC(=O)CCCC[C@@H]1SCC2NC(=O)NC21)C(N)=O (some centres undefined) | 3100 nM | 12200 nM | 90 nM | – | –

Compounds with a lower Ki [2], results first:

Row | Ki [1] | Ki [2] | Kd [3] | GI50 (BT-474) | Compound | Activity (BT-474)
13 | 3400 nM | 800 nM | 240 nM | – | CCC(C)C(NC1=NS(=O)(=O)c2ccccc21)C(=O)NC[C@@H](NC(=O)C1CCCC(NC(=O)C(C2CC2)n2cc(CC3CCCCC3)nn2)C1)C(=O)NC(CCCCNC(=O)CCCC[C@@H]1SCC2NC(=O)NC21)C(N)=O (some centres undefined) | –
14 | 6800 nM | 3010 nM | 110 nM | – | NC(=O)C(CCCCNC(=O)CCCC[C@@H]1SCC2NC(=O)NC21)NC(=O)C(CNC(=O)CCCCCNC1=NS(=O)(=O)c2ccccc21)NC(=O)Cc1ccc(CNC(=O)[C@H](C2CC2)n2cc(CC3CCCCC3)nn2)cc1 (some centres undefined) | –
15 | 16800 nM | 2700 nM | 120 nM | – | CCCCC(NC1=NS(=O)(=O)c2ccccc21)C(=O)NCC(NC(=O)CC1(NC(=O)C(C2CC2)n2cc(CC3CCCCC3)nn2)CCCCC1)C(N)=O (centres undefined) | –
16 | 3400 nM | 800 nM | 240 nM | – | CCC(C)C(NC1=NS(=O)(=O)c2ccccc21)C(=O)NC[C@@H](NC(=O)C1CCCC(NC(=O)C(C2CC2)n2cc(CC3CCCCC3)nn2)C1)C(N)=O (some centres undefined) | –
17 | 16800 nM | 2700 nM | 120 nM | – | CCCCC(NC1=NS(=O)(=O)c2ccccc21)C(=O)NCC(NC(=O)CC1(NC(=O)C(C2CC2)n2cc(CC3CCCCC3)nn2)CCCCC1)C(=O)NC(CCCCNC(=O)CCCC[C@@H]1SCC2NC(=O)NC21)C(N)=O (some centres undefined) | –
18 | 3500 nM | 6200 nM | 100 nM | – | CC(C)C(NC1=NS(=O)(=O)c2ccccc21)C(=O)NC[C@@H](NC(=O)CC1(NC(=O)[C@H](CC(C)(C)C)n2cc(CC3CCCCC3)nn2)CCCCC1)C(=O)NC(CCCCNC(=O)CCCC[C@@H]1SCC2NC(=O)NC21)C(N)=O (some centres undefined) | –
19 | 3500 nM | 6200 nM | 100 nM | – | CC(C)C(NC1=NS(=O)(=O)c2ccccc21)C(=O)NC[C@@H](NC(=O)CC1(NC(=O)[C@H](CC(C)(C)C)n2cc(CC3CCCCC3)nn2)CCCCC1)C(N)=O (some centres undefined) | –
20 | 6800 nM | 3010 nM | 110 nM | – | NC(=O)C(CNC(=O)CCCCCNC1=NS(=O)(=O)c2ccccc21)NC(=O)Cc1ccc(CNC(=O)[C@H](C2CC2)n2cc(CC3CCCCC3)nn2)cc1 (some centres undefined) | –
